Experimental data as given in ChEMBL document CHEMBL5614392, “Discovery of novel N2-indazole derivatives as phosphodiesterase 4 inhibitors for the treatment of inflammatory bowel disease” (Eur J Med Chem, 2024).
Active and inactive are the calls of the source. No cut-off for these calls is given here.

Experiments:
Mus musculus [1] = assay: Antiinflammatory activity against DSS-induced colitis C57BL/6J mouse model assessed as decrease in body weight loss at 10 mg/kg, po pretreated with DSS for 10 days followed by twice daily compound administration for 8 days starting from day 3 to day 10 relative to control; format: functional; parameters: scale not given: the % may be the effect or the level left; conditions: time 8 day
[2] = target: High affinity cAMP-specific and IBMX-insensitive 3',5'-cyclic phosphodiesterase 8A (Homo sapiens) (UniProt O60658); assay: Inhibition of PDE8A (unknown origin) using FAM-cyclic-3'5'-AMP as substrate at 10 uM incubated for 1 hrs by fluorescence polarization assay relative to control
Chain of High affinity cAMP-specific and IBMX-insensitive 3',5'-cyclic phosphodiesterase 8A (Homo sapiens) (O60658 whole entry): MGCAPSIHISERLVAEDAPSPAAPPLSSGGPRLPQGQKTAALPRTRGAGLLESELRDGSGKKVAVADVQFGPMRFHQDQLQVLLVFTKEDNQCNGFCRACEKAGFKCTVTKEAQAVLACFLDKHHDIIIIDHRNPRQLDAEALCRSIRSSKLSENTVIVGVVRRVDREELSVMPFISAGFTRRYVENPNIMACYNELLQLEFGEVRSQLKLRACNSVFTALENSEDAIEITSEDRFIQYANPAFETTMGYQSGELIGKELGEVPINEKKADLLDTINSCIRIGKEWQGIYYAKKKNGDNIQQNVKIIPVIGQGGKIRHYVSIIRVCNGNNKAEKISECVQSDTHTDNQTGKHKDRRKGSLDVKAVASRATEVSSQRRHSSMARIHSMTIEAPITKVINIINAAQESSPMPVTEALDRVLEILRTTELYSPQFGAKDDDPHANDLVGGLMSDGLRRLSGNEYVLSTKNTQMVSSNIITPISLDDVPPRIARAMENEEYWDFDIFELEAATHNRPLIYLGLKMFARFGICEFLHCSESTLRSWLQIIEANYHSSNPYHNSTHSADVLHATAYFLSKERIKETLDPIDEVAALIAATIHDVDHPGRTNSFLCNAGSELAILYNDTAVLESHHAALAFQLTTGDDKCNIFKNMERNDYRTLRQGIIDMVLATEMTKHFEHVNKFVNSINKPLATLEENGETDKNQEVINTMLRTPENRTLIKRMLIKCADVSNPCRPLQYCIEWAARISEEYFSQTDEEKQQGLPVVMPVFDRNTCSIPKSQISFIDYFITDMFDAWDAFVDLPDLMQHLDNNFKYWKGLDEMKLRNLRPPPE

RAW264.7 [3] = assay: Antiinflammatory activity against mouse RAW264.7 cells assessed as inhibition of LPS-induced iNOS mRNA production at 10 uM incubated for 24 hrs by SYBR green quantitative PCR analysis; format: functional, cell-based
[4] = Acute toxicity in male C57BL/6J mouse assessed as body weight loss at 1 g/Kg, po administered for 14 days; format: organism-based; conditions: in vivo, 1000 mg/kg, 336 h, time 14 day
[5] = target: T1, 3',5'-cyclic-AMP phosphodiesterase 4D (Homo sapiens, UniProt Q08499); assay: Inhibition of PDE4D7 (unknown origin) using FAM-cyclic-3'5'-AMP as substrate incubated for 1 hrs by fluorescence polarization assay
T1 sequence (Q08499 whole entry): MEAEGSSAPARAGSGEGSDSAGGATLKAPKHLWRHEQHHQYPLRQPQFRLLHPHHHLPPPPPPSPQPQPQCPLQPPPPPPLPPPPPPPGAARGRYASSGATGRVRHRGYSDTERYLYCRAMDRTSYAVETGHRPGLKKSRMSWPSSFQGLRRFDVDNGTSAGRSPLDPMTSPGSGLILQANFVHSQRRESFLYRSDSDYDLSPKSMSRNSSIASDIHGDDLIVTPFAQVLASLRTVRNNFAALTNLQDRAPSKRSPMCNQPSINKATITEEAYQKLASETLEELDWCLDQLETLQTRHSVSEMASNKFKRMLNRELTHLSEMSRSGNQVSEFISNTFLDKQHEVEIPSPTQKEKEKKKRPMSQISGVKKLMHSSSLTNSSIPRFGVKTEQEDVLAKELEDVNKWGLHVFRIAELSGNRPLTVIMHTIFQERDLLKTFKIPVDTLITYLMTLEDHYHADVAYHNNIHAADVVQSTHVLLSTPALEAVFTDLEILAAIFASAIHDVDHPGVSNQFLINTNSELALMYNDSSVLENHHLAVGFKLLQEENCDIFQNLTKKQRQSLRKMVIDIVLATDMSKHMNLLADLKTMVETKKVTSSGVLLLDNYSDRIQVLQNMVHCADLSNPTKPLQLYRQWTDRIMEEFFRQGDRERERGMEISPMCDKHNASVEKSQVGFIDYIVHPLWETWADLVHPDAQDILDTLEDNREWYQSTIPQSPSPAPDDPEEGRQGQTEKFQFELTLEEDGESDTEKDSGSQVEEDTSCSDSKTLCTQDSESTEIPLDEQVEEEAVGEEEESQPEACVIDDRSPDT

[6] = Selectivity ratio of IC50 for PDE3B (unknown origin) to IC50 for PDE4D (unknown origin)
[7] = target: 3',5'-cyclic-AMP phosphodiesterase 4B (Homo sapiens, UniProt Q07343); assay: Inhibition of PDE4B (unknown origin) using FAM-cyclic-3'5'-AMP as substrate incubated for 1 hrs by fluorescence polarization assay
Chain of 3',5'-cyclic-AMP phosphodiesterase 4B (Q07343 whole entry): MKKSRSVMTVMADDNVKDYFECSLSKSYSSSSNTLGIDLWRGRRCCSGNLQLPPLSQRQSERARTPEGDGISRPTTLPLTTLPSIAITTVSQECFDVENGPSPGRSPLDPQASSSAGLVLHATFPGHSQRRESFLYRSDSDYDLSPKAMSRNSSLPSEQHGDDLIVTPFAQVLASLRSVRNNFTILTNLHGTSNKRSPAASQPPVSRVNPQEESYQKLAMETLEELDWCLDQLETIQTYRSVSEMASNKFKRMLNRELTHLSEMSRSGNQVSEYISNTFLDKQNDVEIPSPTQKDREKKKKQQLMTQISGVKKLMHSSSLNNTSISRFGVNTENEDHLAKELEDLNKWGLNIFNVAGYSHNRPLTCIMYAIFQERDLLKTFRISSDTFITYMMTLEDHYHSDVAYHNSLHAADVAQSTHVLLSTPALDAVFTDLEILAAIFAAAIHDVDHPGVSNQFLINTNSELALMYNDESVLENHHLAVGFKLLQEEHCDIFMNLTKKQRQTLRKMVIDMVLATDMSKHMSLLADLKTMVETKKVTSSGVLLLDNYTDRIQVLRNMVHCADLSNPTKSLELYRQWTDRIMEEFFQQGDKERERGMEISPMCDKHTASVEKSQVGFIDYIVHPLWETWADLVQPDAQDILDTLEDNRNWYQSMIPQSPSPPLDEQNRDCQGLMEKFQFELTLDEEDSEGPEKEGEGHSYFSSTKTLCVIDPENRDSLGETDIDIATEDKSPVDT

[8] = Selectivity ratio of IC50 for PDE7A (unknown origin) to IC50 for PDE4D (unknown origin)
[9] = Acute toxicity in male C57BL/6J mouse assessed as animal death at 1 g/Kg, po administered for 14 days; format: organism-based; conditions: in vivo, 1000 mg/kg, 336 h, time 14 day
Mus musculus [10] = assay: Antiinflammatory activity against DSS-induced colitis C57BL/6J mouse model assessed as decrease in disease activity index at 10 mg/kg, po pretreated with DSS for 10 days followed by twice daily compound administration for 8 days starting from day 3 to day 10 relative to control; format: functional, organism-based; conditions: time 8.0 day
[11] = target: T1, 3',5'-cyclic-AMP phosphodiesterase 4D; assay: Inhibition of PDE4D7 (unknown origin) using FAM-cyclic-3'5'-AMP as substrate at 100 nM incubated for 1 hrs by fluorescence polarization assay relative to control
Mus musculus [12] = assay: (§1) Antiinflammatory activity against DSS-induced colitis C57BL/6J mouse model assessed as reduction in mucosal damage in colon at 3 to 10 mg/kg, po pretreated with DSS for 10 days followed by twice daily compound administration for 8 days starting from day 3 to day 10 by H and E staining based analysis; format: functional, organism-based; conditions: dose 3-10 mg/kg, time 8.0 day
RAW264.7 [13] = assay: Antiinflammatory activity against mouse RAW264.7 cells assessed as inhibition of LPS-induced TNF-alpha mRNA production at 10 uM incubated for 24 hrs by SYBR green quantitative PCR analysis; format: functional, cell-based
[14] = Toxicity in ketamine/xylazine-induced anesthetic male C57BL/6J mouse model assessed as emetogenic potential by measuring reduction in anesthesia duration at 5 to 10 mg/kg, po preadministered with compound for 15 mins followed by ketamine/xylazine administration; format: organism-based; conditions: in vivo, 0.25 h, dose 5-10 mg/kg
[15] = target: cGMP-inhibited 3',5'-cyclic phosphodiesterase 3B (Homo sapiens) (UniProt Q13370); assay: Inhibition of PDE3B (unknown origin) using FAM-cyclic-3'5'-AMP as substrate at 10 uM incubated for 1 hrs by fluorescence polarization assay relative to control
Chain of cGMP-inhibited 3',5'-cyclic phosphodiesterase 3B (Homo sapiens) (Q13370 whole entry, looked up): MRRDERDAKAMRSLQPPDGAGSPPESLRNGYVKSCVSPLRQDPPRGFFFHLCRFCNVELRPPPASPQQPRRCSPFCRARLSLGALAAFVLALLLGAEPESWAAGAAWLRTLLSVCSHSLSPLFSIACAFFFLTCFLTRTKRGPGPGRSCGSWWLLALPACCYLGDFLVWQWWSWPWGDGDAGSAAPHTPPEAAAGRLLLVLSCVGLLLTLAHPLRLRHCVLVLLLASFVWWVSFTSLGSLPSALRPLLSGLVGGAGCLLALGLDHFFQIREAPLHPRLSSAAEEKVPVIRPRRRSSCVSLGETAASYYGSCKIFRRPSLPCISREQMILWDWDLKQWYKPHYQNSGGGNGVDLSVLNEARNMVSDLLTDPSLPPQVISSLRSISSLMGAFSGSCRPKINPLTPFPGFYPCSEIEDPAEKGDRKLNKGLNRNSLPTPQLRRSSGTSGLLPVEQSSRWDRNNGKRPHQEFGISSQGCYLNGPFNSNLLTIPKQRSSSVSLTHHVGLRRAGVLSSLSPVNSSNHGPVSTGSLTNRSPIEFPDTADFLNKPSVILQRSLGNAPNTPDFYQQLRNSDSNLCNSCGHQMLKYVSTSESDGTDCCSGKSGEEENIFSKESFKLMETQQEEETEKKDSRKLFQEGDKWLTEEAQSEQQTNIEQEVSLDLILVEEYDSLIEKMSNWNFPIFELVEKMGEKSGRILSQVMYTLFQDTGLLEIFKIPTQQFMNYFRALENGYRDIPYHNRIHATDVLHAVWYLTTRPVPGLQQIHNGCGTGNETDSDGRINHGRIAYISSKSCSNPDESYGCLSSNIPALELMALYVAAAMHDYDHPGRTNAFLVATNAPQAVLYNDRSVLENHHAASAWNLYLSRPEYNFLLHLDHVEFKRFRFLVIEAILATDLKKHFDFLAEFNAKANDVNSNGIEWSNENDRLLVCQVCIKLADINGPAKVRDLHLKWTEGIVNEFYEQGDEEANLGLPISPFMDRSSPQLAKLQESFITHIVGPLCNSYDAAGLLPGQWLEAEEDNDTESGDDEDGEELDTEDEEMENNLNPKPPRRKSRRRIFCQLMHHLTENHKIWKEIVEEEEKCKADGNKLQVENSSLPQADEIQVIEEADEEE

Mus musculus [16] = assay: as §1, with “lamina propria breakdown” for “mucosal damage”; format: functional, organism-based; conditions: dose 3-10 mg/kg, time 8.0 day
Mus musculus [17] = assay: Antiinflammatory activity against DSS-induced colitis C57BL/6J mouse model assessed as increase in colon length at 3 to 10 mg/kg, po pretreated with DSS for 10 days followed by twice daily compound administration for 8 days starting from day 3 to day 10; format: functional, organism-based; conditions: dose 3-10 mg/kg, time 8.0 day
RAW264.7 [18] = assay: Antiinflammatory activity against mouse RAW264.7 cells assessed as inhibition of LPS-induced IL-6 mRNA production at 10 uM incubated for 24 hrs by SYBR green quantitative PCR analysis; format: functional, cell-based
[19] = target: High affinity cGMP-specific 3',5'-cyclic phosphodiesterase 9A (Homo sapiens) (UniProt O76083); assay: Inhibition of PDE9A (unknown origin) using FAM-cyclic-3'5'-AMP as substrate at 10 uM incubated for 1 hrs by fluorescence polarization assay relative to control
Chain of High affinity cGMP-specific 3',5'-cyclic phosphodiesterase 9A (Homo sapiens) (O76083 whole entry): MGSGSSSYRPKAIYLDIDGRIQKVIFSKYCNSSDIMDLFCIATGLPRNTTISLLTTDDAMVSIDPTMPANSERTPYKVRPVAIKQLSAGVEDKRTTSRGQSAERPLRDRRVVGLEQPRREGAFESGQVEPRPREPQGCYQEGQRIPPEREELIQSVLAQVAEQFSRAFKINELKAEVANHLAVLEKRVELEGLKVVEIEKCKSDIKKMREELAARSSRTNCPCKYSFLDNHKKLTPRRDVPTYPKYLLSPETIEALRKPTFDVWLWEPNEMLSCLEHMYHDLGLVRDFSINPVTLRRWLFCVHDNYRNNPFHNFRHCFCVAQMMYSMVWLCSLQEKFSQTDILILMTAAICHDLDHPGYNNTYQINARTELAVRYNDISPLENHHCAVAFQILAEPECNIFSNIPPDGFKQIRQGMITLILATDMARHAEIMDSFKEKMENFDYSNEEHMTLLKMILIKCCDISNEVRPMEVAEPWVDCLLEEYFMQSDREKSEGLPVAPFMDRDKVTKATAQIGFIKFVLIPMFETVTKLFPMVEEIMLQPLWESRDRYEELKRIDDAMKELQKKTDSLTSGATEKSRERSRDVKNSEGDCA

Mus musculus [20] = assay: Antiinflammatory activity against DSS-induced colitis C57BL/6J mouse model assessed as decrease in body weight loss at 3 mg/kg, po pretreated with DSS for 10 days followed by twice daily compound administration for 8 days starting from day 3 to day 10 relative to control; format: functional; parameters: scale not given: the % may be the effect or the level left; conditions: time 8 day
[21] = Selectivity ratio of IC50 for PDE8A (unknown origin) to IC50 for PDE4D (unknown origin)
Mus musculus [22] = assay: Antiinflammatory activity against DSS-induced colitis C57BL/6J mouse model assessed as decrease in body weight loss at 10 mg/kg, po pretreated with DSS for 10 days followed by twice daily compound administration for 8 days starting from day 3 to day 10 and measured on day 6; format: functional, organism-based; conditions: time 4.0 day
[23] = target: T1, 3',5'-cyclic-AMP phosphodiesterase 4D; assay: Inhibition of PDE4D (unknown origin) using FAM-cyclic-3'5'-AMP as substrate incubated for 1 hrs by fluorescence polarization assay
Mus musculus [24] = assay: as §1, with “inflammatory cell infiltration” for “mucosal damage”; format: functional, organism-based; conditions: dose 3-10 mg/kg, time 8.0 day
Mus musculus [25] = assay: as §1, with “crypt structure loss” for “mucosal damage”; format: functional, organism-based; conditions: dose 3-10 mg/kg, time 8.0 day
[26] = Selectivity ratio of IC50 for PDE9A (unknown origin) to IC50 for PDE4D (unknown origin)
[27] = target: T1, 3',5'-cyclic-AMP phosphodiesterase 4D; assay: Inhibition of PDE4D7 (unknown origin) using FAM-cyclic-3'5'-AMP as substrate at 10 nM incubated for 1 hrs by fluorescence polarization assay relative to control
[28] = Oral bioavailability in male C57BL/6J mouse; format: ADME, organism-based; conditions: in vivo
[29] = target: High affinity 3',5'-cyclic-AMP phosphodiesterase 7A (Homo sapiens) (UniProt Q13946); assay: Inhibition of PDE7A (unknown origin) using FAM-cyclic-3'5'-AMP as substrate at 10 uM incubated for 1 hrs by fluorescence polarization assay relative to control
Chain of High affinity 3',5'-cyclic-AMP phosphodiesterase 7A (Homo sapiens) (Q13946 whole entry): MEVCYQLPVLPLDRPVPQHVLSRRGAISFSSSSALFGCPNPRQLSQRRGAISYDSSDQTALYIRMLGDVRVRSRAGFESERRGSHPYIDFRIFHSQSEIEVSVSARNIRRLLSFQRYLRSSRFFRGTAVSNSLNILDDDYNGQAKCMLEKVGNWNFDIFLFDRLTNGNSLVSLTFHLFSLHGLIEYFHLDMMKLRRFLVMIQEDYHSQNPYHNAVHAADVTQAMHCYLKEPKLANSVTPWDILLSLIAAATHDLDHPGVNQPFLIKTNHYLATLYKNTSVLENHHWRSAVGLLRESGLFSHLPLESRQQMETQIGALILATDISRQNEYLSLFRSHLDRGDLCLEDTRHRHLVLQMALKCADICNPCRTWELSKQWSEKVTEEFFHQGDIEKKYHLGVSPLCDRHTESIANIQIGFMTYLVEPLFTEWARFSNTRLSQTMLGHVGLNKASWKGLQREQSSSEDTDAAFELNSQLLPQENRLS

HT-22 = assay: Cytotoxicity against mouse HT-22 cells at 10 to 30 uM; format: toxicity, cell-based; conditions: ht-22, 30 µM, dose 10-30 µM

COc1cc(-c2ccc(OC(F)F)c3nn(C4CC4)cc23)cc(OC)c1OC
Activity (Mus musculus [1]): 4.9% | inhibition [2]: 12% | Activity (RAW264.7 [3]): Active | Activity [4]: Non-Toxic | IC50 [5]: 10.5 nM | Ratio IC50 [6]: > 156 | IC50 [7]: 64.4 nM | Ratio IC50 [8]: > 156 | Activity [9]: Non-Toxic | Activity (Mus musculus [10]): Active | inhibition [11]: 86% | Activity (Mus musculus [12]): Active | Activity (RAW264.7 [13]): Active | Activity [14]: Non-Toxic | inhibition [15]: 6% | Activity (Mus musculus [16]): Active | Activity (Mus musculus [17]): Active | Activity (RAW264.7 [18]): Active | inhibition [19]: 7% | Activity (Mus musculus [20]): 16.7% | Ratio IC50 [21]: > 156 | Activity (Mus musculus [22]): Active | IC50 [23]: 65.7 nM | Activity (Mus musculus [24]): Active | Activity (Mus musculus [25]): Active | Ratio IC50 [26]: > 156 | inhibition [27]: 42% | bioavailability [28]: 5% | inhibition [29]: 14% | Activity (HT-22): Non-Toxic
